According to patent publication US20250230147A1, “LACTAMS AS CBL-B INHIBITORS” (Genentech, Inc., priority 2021, published 2025):
Where a name gives a salt, the structure may show the parent alone.

Legend:
Cbl-b = Cbl-b (Homo sapiens (Human), UniProt Q13191); assay: Cbl-b LCK Ub TR-FRET assay (Cbl-b Lck HTRF); format: biochemical
Procedure, shortened: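 Biotin-Cbl-b preincubated with compound (10-point 3-fold series) 60 min, then His-LCK with 1 mM ATP (2× mixture) added for 90 min at room temperature. Ubiquitination detected by TR-FRET using HA-ubiquitin/UBE2D2 adduct, anti-HA-D2 and streptavidin-Eu; IC50 normalised to no-LCK and DMSO controls.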

c-Cbl = c-Cbl (Homo sapiens (Human), UniProt P22681); assay: C-Cbl LCK Ub TR-FRET assay (c-cbl Lck HTRF); format: biochemical; conditions: for (fold-selectivity): C-cbl Lck HTRF IC50 relative to Cbl-b Lck HTRF IC50
Procedure, shortened: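 After the ubiquitination reaction, detection mixture was added and plates incubated 20 min at room temperature before reading. IC50 values were calculated with wells lacking LCK as the low control and DMSO as the high control.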

Cbl-b, sequence (Q13191 40-426): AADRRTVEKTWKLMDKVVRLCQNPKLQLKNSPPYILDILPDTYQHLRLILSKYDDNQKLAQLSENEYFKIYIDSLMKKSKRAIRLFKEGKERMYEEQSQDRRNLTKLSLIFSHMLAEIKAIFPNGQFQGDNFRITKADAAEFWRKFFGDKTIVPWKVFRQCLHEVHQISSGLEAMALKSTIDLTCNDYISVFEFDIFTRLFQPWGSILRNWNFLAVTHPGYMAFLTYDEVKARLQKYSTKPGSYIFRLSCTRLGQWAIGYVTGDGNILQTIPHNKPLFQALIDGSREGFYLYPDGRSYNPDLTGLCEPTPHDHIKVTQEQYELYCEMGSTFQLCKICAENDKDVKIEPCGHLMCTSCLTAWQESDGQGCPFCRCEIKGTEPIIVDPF
c-Cbl, sequence (P22681 47-435): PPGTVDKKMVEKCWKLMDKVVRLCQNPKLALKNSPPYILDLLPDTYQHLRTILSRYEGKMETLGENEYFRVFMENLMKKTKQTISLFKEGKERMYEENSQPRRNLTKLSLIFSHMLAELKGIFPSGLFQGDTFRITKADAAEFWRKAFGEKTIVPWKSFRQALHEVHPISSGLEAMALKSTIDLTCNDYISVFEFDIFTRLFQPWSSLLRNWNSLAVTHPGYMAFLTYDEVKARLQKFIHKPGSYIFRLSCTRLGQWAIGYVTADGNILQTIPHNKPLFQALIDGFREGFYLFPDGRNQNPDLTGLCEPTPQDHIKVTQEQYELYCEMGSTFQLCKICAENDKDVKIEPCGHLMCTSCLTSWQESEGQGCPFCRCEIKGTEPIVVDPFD

SMILES | IC50 (Cbl-b) [nM] | IC50 (c-Cbl) [nM] | (fold-selectivity) (c-Cbl)
Cn1cnnc1C(F)(F)C1(c2cccc(N3Cc4c(cccc4C(F)(F)F)C3=O)c2)CC(F)(F)C1 [Compound 253, 2-(3-(1-(difluoro(4-methyl-4H-1,2,4-triazol-3-yl)methyl)-3,3-difluorocyclobutyl)phenyl)-4-(trifluoromethyl)isoindolin-1-one] | 1400 | 3400 | (2.6x)
Cn1cnnc1[C@H](F)C1(c2cccc(N3Cc4c(cc([C@@H](N)C5CC5)cc4C(F)(F)F)C3=O)c2)COC1 [Compound 53, 6-((S)-amino(cyclopropyl)methyl)-2-(3-(3-((R)-fluoro(4-methyl-4H-1,2,4-triazol-3-yl)methyl)oxetan-3-yl)phenyl)-4-(trifluoromethyl)isoindolin-1-one] | 34 | 63 | 1.9x
CN1CC(Cc2cc3c(c(C(F)(F)F)c2)CN(c2cccc(C4(Cc5nncn5C)CC(F)(F)C4)c2)C3=O)C1 [Compound 442, 2-(3-(3,3-difluoro-1-((4-methyl-4H-1,2,4-triazol-3-yl)methyl)cyclobutyl)phenyl)-6-((1-methylazetidin-3-yl)methyl)-4-(trifluoromethyl)isoindolin-1-one formate] | 96 | 64 | –
Cn1cc(CNc2cc(C3(Cc4nncn4C)CCC3)cc(N3Cc4c(cc(CNC5(C)CCC5)cc4C(F)(F)F)C3=O)n2)cn1 [Compound 313, 2-(6-(((1-methyl-1H-pyrazol-4-yl)methyl)amino)-4-(1-((4-methyl-4H-1,2,4-triazol-3-yl)methyl)cyclobutyl)pyridin-2-yl)-6-(((1-methylcyclobutyl)amino)methyl)-4-(trifluoromethyl)isoindolin-1-one] | 24 | 23 | (0.95x)
Cn1cnnc1CC1(c2cc(Cl)nc(N3Cc4c(cc(CNC5(C)CCC5)cc4C(F)(F)F)C3=O)c2)CCC1 [Compound 351, 2-(6-chloro-4-(1-((4-methyl-4H-1,2,4-triazol-3-yl)methyl)cyclobutyl)pyridin-2-yl)-6-(((1-methylcyclobutyl)amino)methyl)-4-(trifluoromethyl)isoindolin-1-one formate] | 33 | 19 | –
Cn1cnnc1[C@H](F)C1(c2cccc(N3Cc4c(cc(CN5CC(C)(CCl)C5)cc4C(F)(F)F)C3=O)c2)COC1 [Compound 103, (R)-6-((3-(chloromethyl)-3-methylazetidin-1-yl)methyl)-2-(3-(3-(fluoro(4-methyl-4H-1,2,4-triazol-3-yl)methyl)oxetan-3-yl)phenyl)-4-(trifluoromethyl)isoindolin-1-one] | 15 | 22 | 1.5x
COCC1(NCc2cc3c(c(C(F)(F)F)c2)CN(c2cccc(C4(Cc5nncn5C)CC(F)(F)C4)c2)C3=O)CC1 [Compound 367, 2-(3-(3,3-difluoro-1-((4-methyl-4H-1,2,4-triazol-3-yl)methyl)cyclobutyl)phenyl)-6-(((1-(methoxymethyl)cyclopropyl)amino)methyl)-4-(trifluoromethyl)isoindolin-1-one] | 30 | 29 | (0.96x)
Cn1cnnc1CC1(c2cccc(N3Cc4c(cc(CN5Cc6c[nH]nc6C5)cc4C(F)(F)F)C3=O)c2)CC(F)(F)C1 [Compound 105, 2-(3-(3,3-difluoro-1-((4-methyl-4H-1,2,4-triazol-3-yl)methyl)cyclobutyl)phenyl)-6-((2,6-dihydropyrrolo[3,4-c]pyrazol-5(4H)-yl)methyl)-4-(trifluoromethyl)isoindolin-1-one] | 26 | 25 | 0.93x
C[C@@H](NC1(C)CCC1)c1cc2c(c(C(F)(F)F)c1)CN(c1cccc(C3([C@@H](F)c4nncn4C)COC3)c1)C2=O [Compound 247, 2-(3-(3-((R)-fluoro(4-methyl-4H-1,2,4-triazol-3-yl)methyl)oxetan-3-yl)phenyl)-6-((R)-1-((1-methylcyclobutyl)amino)ethyl)-4-(trifluoromethyl)isoindolin-1-one] | 7.6 | 11 | (1.4x)
Cn1cnnc1[C@@H](F)C1(c2cccc(N3Cc4c(cc(CN5CC(C)(C)C5)cc4C(F)(F)F)C3=O)c2)COC1 [Compound 73, (S)-6-((3,3-dimethylazetidin-1-yl)methyl)-2-(3-(3-(fluoro(4-methyl-4H-1,2,4-triazol-3-yl)methyl)oxetan-3-yl)phenyl)-4-(trifluoromethyl)isoindolin-1-one] | 140 | 300 | 2.2x
Cn1cnnc1[C@H](F)C1(c2cccc(N3Cc4c(cc(CN5CCC[C@H](CO)C5)cc4C(F)(F)F)C3=O)c2)COC1 [Compound 143, 2-(3-(3-((R)-fluoro(4-methyl-4H-1,2,4-triazol-3-yl)methyl)oxetan-3-yl)phenyl)-6-(((S)-3-(hydroxymethyl)piperidin-1-yl)methyl)-4-(trifluoromethyl)isoindolin-1-one] | 29 | 27 | 0.92x
Cn1cnnc1C(F)(F)C1(c2cccc(N3Cc4c(cc(CNC5(C)CCC5)cc4C(F)(F)F)C3=O)c2)COC1 [Compound 287, 2-(3-(3-(difluoro(4-methyl-4H-1,2,4-triazol-3-yl)methyl)oxetan-3-yl)phenyl)-6-(((1-methylcyclobutyl)amino)methyl)-4-(trifluoromethyl)isoindolin-1-one] | 32 | 43 | (1.4x)
CN1CCN(Cc2cc3c(c(C(F)(F)F)c2)CN(c2cccc(C4(Cc5nncn5C)CC(F)(F)C4)c2)C3=O)[C@@H](C2CC2)C1 [Compound 402, (S)-6-((2-cyclopropyl-4-methylpiperazin-1-yl)methyl)-2-(3-(3,3-difluoro-1-((4-methyl-4H-1,2,4-triazol-3-yl)methyl)cyclobutyl)phenyl)-4-(trifluoromethyl)isoindolin-1-one] | 39 | 46 | (1.2x)
CC(C)CNCc1cc2c(c(C(F)(F)F)c1)CN(c1cccc(C3([C@@H](F)c4nncn4C)CC(F)(F)C3)c1)C2=O [Compound 451, (R)-2-(3-(3,3-difluoro-1-(fluoro(4-methyl-4H-1,2,4-triazol-3-yl)methyl)cyclobutyl)phenyl)-6-((isobutylamino)methyl)-4-(trifluoromethyl)isoindolin-1-one] | 15 | 10 | (0.71x)
CC[C@H]1CC[C@H](c2cc3c(c(C(F)(F)F)c2)CN(c2cccc(C4(Cc5nncn5C)CC(F)(F)C4)c2)C3=O)N1 [Compound 469, 2-(3-(3,3-difluoro-1-((4-methyl-4H-1,2,4-triazol-3-yl)methyl)cyclobutyl)phenyl)-6-((2R,5S)-5-ethylpyrrolidin-2-yl)-4-(trifluoromethyl)isoindolin-1-one] | 48 | 52 | (1.1x)
CC(C)[C@H]1CN(C)CCN1Cc1cc2c(c(C(F)(F)F)c1)CN(c1cc(C3([C@@H](F)c4nncn4C)CCC3)cc(NCCO)n1)C2=O [Compound 233, 2-(4-(1-((R)-fluoro(4-methyl-4H-1,2,4-triazol-3-yl)methyl)cyclobutyl)-6-((2-hydroxyethyl)amino)pyridin-2-yl)-6-(((S)-2-isopropyl-4-methyl-piperazin-1-yl)methyl)-4-(trifluoromethyl)isoindolin-1-one] | 8.3 | 7.1 | (0.94x)
Cn1cnnc1CC1(c2cccc(N3Cc4c(cc(CN)cc4C(F)(F)F)C3=O)c2)COC1 [Compound 66, 6-(aminomethyl)-2-(3-(3-((4-methyl-4H-1,2,4-triazol-3-yl)methyl)oxetan-3-yl)phenyl)-4-(trifluoromethyl)isoindolin-1-one formate] | 76 | 100 | –
Cn1cnnc1[C@@H](F)C1(c2cccc(N3Cc4c(cc(CN)cc4C(F)(F)F)C3=O)c2)CCC1 [Compound 387, (S)-6-(aminomethyl)-2-(3-(1-(fluoro(4-methyl-4H-1,2,4-triazol-3-yl)methyl)cyclobutyl)phenyl)-4-(trifluoromethyl)isoindolin-1-one] | 58 | 53 | (0.91x)
Cn1cnnc1[C@H](F)C1(c2cccc(N3Cc4c(cc(CN5CC6(C5)CC6(F)F)cc4C(F)(F)F)C3=O)c2)COC1 [Compound 153, (R)-6-((1,1-difluoro-5-azaspiro[2.3]hexan-5-yl)methyl)-2-(3-(3-(fluoro(4-methyl-4H-1,2,4-triazol-3-yl)methyl)oxetan-3-yl)phenyl)-4-(trifluoromethyl)isoindolin-1-one] | 27 | 60 | 2.2x
CC(=O)Nc1cc(C2(Cc3nncn3C)CCC2)cc(N2Cc3c(cc(CN4CCN(C)C[C@@H]4C(C)C)cc3C(F)(F)F)C2=O)n1 [Compound 330, (S)-N-(6-(6-((2-isopropyl-4-methylpiperazin-1-yl)methyl)-1-oxo-4-(trifluoromethyl)isoindolin-2-yl)-4-(1-((4-methyl-4H-1,2,4-triazol-3-yl)methyl)cyclobutyl)pyridin-2-yl)acetamide] | 1000 | 1200 | (1.2x)
C[C@H](c1cc2c(c(C(F)(F)F)c1)CN(c1cccc(C3([C@@H](F)c4nncn4C)COC3)c1)C2=O)N1CC(C)(F)C1 [Compound 109, 2-(3-(3((R)-fluoro(4-methyl-4H-1,2,4-triazol-3-yl)methyl)oxetan-3-yl)phenyl)-6-((R)-1-(3-fluoro-3-methylazetidin-1-yl)ethyl)-4-(trifluoromethyl)isoindolin-1-one] | 44 | 85 | 1.9x
